Measurements taken from ChEMBL document CHEMBL2396563, “Inhibitory constituents of the heartwood of Dalbergia odorifera on nitric oxide production in RAW 264.7 macrophages” (Bioorg Med Chem Lett, 2013).

Tests used:
[1] = Antiinflammatory activity in mouse RAW264.7 cells assessed as inhibition of LPS-induced nitric oxide production after 24 hrs by Griess assay; assay type: functional, cell-based; conditions: RAW264.7, 24 h
[2] = Cytotoxicity against mouse RAW264.7 cells by CCK assay; assay type: cell-based

With O=C1C[C@@H](c2cc(O)cc(O)c2)Oc2cc(O)cc(O)c21 the IC50 [1] was > 100 µM and the Activity [2] was “Non-toxic”.
In the case of COc1ccc2c(c1)O[C@H]1c3ccc(O)cc3OC[C@@H]21, the IC50 [1] is reported as 83.7 µM and the Activity [2] is reported as “Non-toxic”.
For COc1cc(OC)c([C@H]2COc3cc(O)ccc3C2=O)cc1OC, the IC50 [1] was > 100 µM and the Activity [2] was “Non-toxic”.
In the case of COc1cc2c(cc1O)C(=O)C[C@@H](c1ccc(O)cc1)O2, the IC50 [1] is reported as > 100 µM and the Activity [2] is reported as “Non-toxic”.
For COc1cc2oc(=O)cc(-c3ccc(O)c(O)c3)c2cc1O, the IC50 [1] was 45.5 µM and the Activity [2] was “Non-toxic”.
With C=C[C@H](c1cccc(O)c1)c1cc(OC)c(OC)cc1OC the IC50 [1] was 70.3 µM and the Activity [2] was “Non-toxic”.
For C=C[C@H](c1ccccc1)c1cc(OC)c(OC)cc1O, the IC50 [1] was 73.9 µM and the Activity [2] was “Non-toxic”.
In the case of O=C(c1ccc(O)cc1O)[C@H](O)Cc1ccc(O)c(O)c1, the IC50 [1] is reported as > 100 µM and the Activity [2] is reported as “Non-toxic”.
In the case of O=C(c1ccc(O)cc1O)[C@H](O)Cc1ccc(O)cc1, the IC50 [1] is reported as > 100 µM and the Activity [2] is reported as “Non-toxic”.
For COc1cc2c(=O)c3ccccc3oc2cc1O, the IC50 [1] was > 100 µM and the Activity [2] was “Non-toxic”.
With COc1ccc([C@@]2(O)COc3cc(O)ccc3C2=O)c(OC)c1 the IC50 [1] was > 100 µM and the Activity [2] was “Non-toxic”.
In the case of COc1ccc(-c2coc3cc(O)ccc3c2=O)c(OC)c1 [2'-METHOXYFORMONETIN], the IC50 [1] is reported as > 100 µM and the Activity [2] is reported as “Non-toxic”.
In the case of C=C[C@H](c1ccccc1O)c1cc(OC)c(OC)cc1OC [5-O-METHYLLATIFOLIN], the IC50 [1] is reported as 74 µM and the Activity [2] is reported as “Non-toxic”.
For COc1ccc([C@@H]2COc3cc(O)ccc3C2=O)c(OC)c1OC [(3R)-3'-O-METHYLVIOLANONE], the IC50 [1] was > 100 µM and the Activity [2] was “Non-toxic”.
With COc1ccc([C@@H]2COc3cc(O)ccc3C2=O)c(OC)c1 [(3R)-SATIVANONE] the IC50 [1] was > 100 µM and the Activity [2] was “Non-toxic”.
With COc1ccc([C@@H]2COc3cc(O)ccc3C2=O)c(OC)c1O [(3R)-VIOLANONE] the IC50 [1] was > 100 µM and the Activity [2] was “Non-toxic”.
With O=C(/C=C/c1ccc(O)c(O)c1)c1ccc(O)cc1O [BUTEIN] the IC50 [1] was 35.1 µM and the Activity [2] was “Non-toxic”.
With O=c1c(-c2ccc(O)cc2)coc2cc(O)ccc12 [DAIDZEIN] the IC50 [1] was > 100 µM and the Activity [2] was “Non-toxic”.
For COc1ccc(-c2coc3cc(O)ccc3c2=O)cc1 [FORMONONETIN], the IC50 [1] was 56.1 µM and the Activity [2] was “Non-toxic”.
For O=C(/C=C/c1ccc(O)cc1)c1ccc(O)cc1O [ISOLIQUIRITIGENIN], the IC50 [1] was 72 µM and the Activity [2] was “Non-toxic”.
For C=C[C@H](c1ccccc1O)c1cc(O)c(OC)cc1OC [LATIFOLIN], the IC50 [1] was 73.2 µM and the Activity [2] was “Non-toxic”.
In the case of COc1cc2oc(=O)cc(-c3ccc(O)cc3)c2cc1O [MELANETTIN], the IC50 [1] is reported as 53.2 µM and the Activity [2] is reported as “Non-toxic”.
In the case of COc1cc(-c2coc3cc(O)cc(O)c3c2=O)c(OC)cc1O [OLIBERGIN A], the IC50 [1] is reported as 45.5 µM and the Activity [2] is reported as “Non-toxic”.
For O=c1c(-c2ccc(O)c(O)c2)coc2cc(O)cc(O)c12 [OROBOL], the IC50 [1] was 43.7 µM and the Activity [2] was “Non-toxic”.
In the case of N=C(N)NN [PIMAGEDINE], the IC50 [1] is reported as 16.6 µM.
In the case of O=C1C[C@@H](c2ccccc2)Oc2cc(O)cc(O)c21 [PINOCEMBRIN], the IC50 [1] is reported as 18.1 µM and the Activity [2] is reported as “Non-toxic”.
In the case of COc1cc(O)c2c(c1)O[C@H](c1ccccc1)CC2=O [PINOSTROBIN], the IC50 [1] is reported as 53.5 µM and the Activity [2] is reported as “Non-toxic”.
